In PubChem BioAssay (NCI):
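In this assay, cells in 96-well plates receive the compound at five concentrations for 48 hours. Endpoints are linearly interpolated between the surrounding concentrations. TGI is the concentration that stops growth completely.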

Columns and labels:
Assay in all cases: NCI tumour cell line growth inhibition, 48 h
SNB-75 CNS = system: SNB-75 CNS
NCI/ADR-RES ovarian = system: NCI/ADR-RES ovarian
MDA-N = system: MDA-N
A498 renal = system: A498 renal
SN12C renal = system: SN12C renal
ACHN renal = system: ACHN renal
UACC-62 melanoma = system: UACC-62 melanoma
NCI-H23 lung = system: NCI-H23 lung
SNB-19 CNS = system: SNB-19 CNS
HCC-2998 colon = system: HCC-2998 colon
HT29 colon = system: HT29 colon
K-562 leukemia = system: K-562 leukemia
OVCAR-3 ovarian = system: OVCAR-3 ovarian
DU-145 prostate = system: DU-145 prostate
SK-MEL-2 melanoma = system: SK-MEL-2 melanoma
SK-MEL-5 melanoma = system: SK-MEL-5 melanoma
MALME-3M melanoma = system: MALME-3M melanoma
RXF 393 renal = system: RXF 393 renal
IGROV1 ovarian = system: IGROV1 ovarian
NCI-H460 lung = system: NCI-H460 lung
BT-549 breast = system: BT-549 breast
OVCAR-5 ovarian = system: OVCAR-5 ovarian
COLO 205 colon = system: COLO 205 colon
SK-OV-3 ovarian = system: SK-OV-3 ovarian
SK-MEL-28 melanoma = system: SK-MEL-28 melanoma
HCT-116 colon = system: HCT-116 colon
MDA-MB-435 = system: MDA-MB-435
KM12 colon = system: KM12 colon
SR leukemia = system: SR leukemia
SW-620 colon = system: SW-620 colon
SF-539 CNS = system: SF-539 CNS
OVCAR-8 ovarian = system: OVCAR-8 ovarian
HS 578T breast = system: HS 578T breast
RPMI-8226 leukemia = system: RPMI-8226 leukemia
SF-268 CNS = system: SF-268 CNS
SF-295 CNS = system: SF-295 CNS
MDA-MB-231 breast = system: MDA-MB-231 breast
HCT-15 colon = system: HCT-15 colon
NCI-H522 lung = system: NCI-H522 lung
TK-10 renal = system: TK-10 renal
U251 CNS = system: U251 CNS
HOP-92 NSCLC = system: HOP-92 NSCLC
NCI-H226 lung = system: NCI-H226 lung
CAKI-1 renal = system: CAKI-1 renal
A549 NSCLC = system: A549 NSCLC
EKVX NSCLC = system: EKVX NSCLC
UO-31 renal = system: UO-31 renal
MOLT-4 leukemia = system: MOLT-4 leukemia
HOP-62 NSCLC = system: HOP-62 NSCLC
M14 melanoma = system: M14 melanoma
UACC-257 melanoma = system: UACC-257 melanoma
T-47D breast = system: T-47D breast
PC-3 prostate = system: PC-3 prostate
HL-60(TB) leukemia = system: HL-60(TB) leukemia
MCF7 breast = system: MCF7 breast
786-0 renal = system: 786-0 renal
CCRF-CEM leukemia = system: CCRF-CEM leukemia
LOX IMVI melanoma = system: LOX IMVI melanoma

## C=CCOC(=O)/C(=C\c1ccc(OC)c(OC)c1)c1ccc(OC)c(OC)c1
SNB-75 CNS
  TGI: 36.3 µM
NCI/ADR-RES ovarian
  TGI: > 100 µM
MDA-N
  TGI: > 100 µM
A498 renal
  TGI: > 100 µM
SN12C renal
  TGI: > 100 µM
ACHN renal
  TGI: > 100 µM
UACC-62 melanoma
  TGI: > 100 µM
NCI-H23 lung
  TGI: > 100 µM
SNB-19 CNS
  TGI: > 100 µM
HCC-2998 colon
  TGI: > 100 µM
HT29 colon
  TGI: > 100 µM
K-562 leukemia
  TGI: > 100 µM
OVCAR-3 ovarian
  TGI: > 100 µM
DU-145 prostate
  TGI: > 100 µM
SK-MEL-2 melanoma
  TGI: > 100 µM
SK-MEL-5 melanoma
  TGI: > 100 µM
MALME-3M melanoma
  TGI: > 100 µM
RXF 393 renal
  TGI: 99.5 µM
IGROV1 ovarian
  TGI: > 100 µM
NCI-H460 lung
  TGI: > 100 µM
BT-549 breast
  TGI: > 100 µM
OVCAR-5 ovarian
  TGI: > 100 µM
COLO 205 colon
  TGI: > 100 µM
SK-OV-3 ovarian
  TGI: > 100 µM
SK-MEL-28 melanoma
  TGI: > 100 µM
HCT-116 colon
  TGI: > 100 µM
MDA-MB-435
  TGI: > 100 µM
KM12 colon
  TGI: > 100 µM
SR leukemia
  TGI: 72.3 µM
SW-620 colon
  TGI: > 100 µM
SF-539 CNS
  TGI: > 100 µM
OVCAR-8 ovarian
  TGI: > 100 µM
HS 578T breast
  TGI: > 100 µM
RPMI-8226 leukemia
  TGI: 47.6 µM
SF-268 CNS
  TGI: > 100 µM
SF-295 CNS
  TGI: > 100 µM
MDA-MB-231 breast
  TGI: > 100 µM
HCT-15 colon
  TGI: > 100 µM
NCI-H522 lung
  TGI: > 100 µM
TK-10 renal
  TGI: > 100 µM
U251 CNS
  TGI: > 100 µM
HOP-92 NSCLC
  TGI: > 100 µM
NCI-H226 lung
  TGI: > 100 µM
CAKI-1 renal
  TGI: > 100 µM
A549 NSCLC
  TGI: > 100 µM
EKVX NSCLC
  TGI: > 100 µM
UO-31 renal
  TGI: 80 µM
MOLT-4 leukemia
  TGI: 49.5 µM
HOP-62 NSCLC
  TGI: > 100 µM
M14 melanoma
  TGI: > 100 µM
UACC-257 melanoma
  TGI: > 100 µM
T-47D breast
  TGI: 98.4 µM
PC-3 prostate
  TGI: > 100 µM
HL-60(TB) leukemia
  TGI: 40.3 µM
MCF7 breast
  TGI: > 100 µM
786-0 renal
  TGI: > 100 µM
CCRF-CEM leukemia
  TGI: > 100 µM

## CC1C(c2ccccc2)OP(=O)(OC(C#N)c2ccccc2)N1C (centres undefined)
SNB-75 CNS
  TGI: > 100 µM
NCI/ADR-RES ovarian
  TGI: > 100 µM
MDA-N
  TGI: > 100 µM
A498 renal
  TGI: > 100 µM
SN12C renal
  TGI: > 100 µM
ACHN renal
  TGI: > 100 µM
UACC-62 melanoma
  TGI: > 100 µM
NCI-H23 lung
  TGI: > 100 µM
SNB-19 CNS
  TGI: > 100 µM
HCC-2998 colon
  TGI: > 100 µM
HT29 colon
  TGI: > 100 µM
K-562 leukemia
  TGI: > 100 µM
OVCAR-3 ovarian
  TGI: > 100 µM
DU-145 prostate
  TGI: > 100 µM
SK-MEL-2 melanoma
  TGI: > 100 µM
SK-MEL-5 melanoma
  TGI: > 100 µM
MALME-3M melanoma
  TGI: > 100 µM
RXF 393 renal
  TGI: > 100 µM
IGROV1 ovarian
  TGI: > 100 µM
NCI-H460 lung
  TGI: > 100 µM
BT-549 breast
  TGI: > 100 µM
OVCAR-5 ovarian
  TGI: > 100 µM
COLO 205 colon
  TGI: > 100 µM
SK-OV-3 ovarian
  TGI: > 100 µM
SK-MEL-28 melanoma
  TGI: > 100 µM
HCT-116 colon
  TGI: > 100 µM
MDA-MB-435
  TGI: > 100 µM
KM12 colon
  TGI: > 100 µM
SR leukemia
  TGI: > 100 µM
SW-620 colon
  TGI: > 100 µM
SF-539 CNS
  TGI: > 100 µM
OVCAR-8 ovarian
  TGI: > 100 µM
HS 578T breast
  TGI: > 100 µM
RPMI-8226 leukemia
  TGI: > 100 µM
SF-268 CNS
  TGI: > 100 µM
SF-295 CNS
  TGI: > 100 µM
MDA-MB-231 breast
  TGI: > 100 µM
HCT-15 colon
  TGI: > 100 µM
NCI-H522 lung
  TGI: > 100 µM
TK-10 renal
  TGI: > 100 µM
U251 CNS
  TGI: > 100 µM
HOP-92 NSCLC
  TGI: > 100 µM
LOX IMVI melanoma
  TGI: > 100 µM
CAKI-1 renal
  TGI: > 100 µM
A549 NSCLC
  TGI: > 100 µM
EKVX NSCLC
  TGI: > 100 µM
UO-31 renal
  TGI: > 100 µM
MOLT-4 leukemia
  TGI: > 100 µM
HOP-62 NSCLC
  TGI: > 100 µM
M14 melanoma
  TGI: > 100 µM
UACC-257 melanoma
  TGI: > 100 µM
T-47D breast
  TGI: > 100 µM
PC-3 prostate
  TGI: > 100 µM
HL-60(TB) leukemia
  TGI: > 100 µM
MCF7 breast
  TGI: > 100 µM
786-0 renal
  TGI: > 100 µM
CCRF-CEM leukemia
  TGI: > 100 µM
